Measured values as given in the supplement of paper PMC10307832.

Assays:
Assay in all cases: relative viability (nuclei count vs DMSO), 5 days (fraction); higher = more cells survive
DM3189 + Phenformin = compound: C1CN(CCN1)C2=CC=C(C=C2)C3=CN4C(=C(C=N4)C5=CC=NC6=CC=CC=C56)N=C3 [DM3189] + N=C(N)NC(=N)NCCc1ccccc1 [Phenformin] (partner 250 µM)
Procedure, shortened: (§1)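 Relative viability is defined as nuclei in treated wells over nuclei in vehicle wells. Duplicate plates were run and medians reported. Lung cancer cell lines in 1536-well plates were dosed by pin tool one day after seeding, with one drug or with a fixed anchor-drug dose plus five library-drug doses (not always all listed) in √10 steps, and nuclei were counted after 5 days.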

DM3189 + Crizotinib = compound: C1CN(CCN1)C2=CC=C(C=C2)C3=CN4C(=C(C=N4)C5=CC=NC6=CC=CC=C56)N=C3 [DM3189] + C[C@@H](Oc1cc(-c2cnn(C3CCNCC3)c2)cnc1N)c1c(Cl)ccc(F)c1Cl [Crizotinib] (partner 1 µM)
Procedure, shortened: as §1

DM3189 + Foretinib = compound: C1CN(CCN1)C2=CC=C(C=C2)C3=CN4C(=C(C=N4)C5=CC=NC6=CC=CC=C56)N=C3 [DM3189] + COc1cc2c(Oc3ccc(NC(=O)C4(C(=O)Nc5ccc(F)cc5)CC4)cc3F)ccnc2cc1OCCCN1CCOCC1 [Foretinib] (partner 0.25 µM)
Procedure, shortened: as §1

DM3189 + Alpelisib = compound: C1CN(CCN1)C2=CC=C(C=C2)C3=CN4C(=C(C=N4)C5=CC=NC6=CC=CC=C56)N=C3 [DM3189] + Cc1nc(NC(=O)N2CCC[C@H]2C(N)=O)sc1-c1ccnc(C(C)(C)C(F)(F)F)c1 [Alpelisib] (partner 2 µM)
Procedure, shortened: as §1

DM3189 + OSI-027 = compound: C1CN(CCN1)C2=CC=C(C=C2)C3=CN4C(=C(C=N4)C5=CC=NC6=CC=CC=C56)N=C3 [DM3189] + COc1cccc2cc(-c3nc([C@H]4CC[C@H](C(=O)O)CC4)n4ncnc(N)c34)[nH]c12 [OSI-027] (partner 0.5 µM)
Procedure, shortened: as §1

| Cell Line | relative viability (DM3189 + Phenformin; first compound 0.08 µM) | relative viability (DM3189 + Phenformin; first compound 0.253 µM) | relative viability (DM3189 + Phenformin; first compound 0.8 µM) | relative viability (DM3189 + Phenformin; first compound 2.53 µM) | relative viability (DM3189 + Crizotinib; first compound 0.08 µM) | relative viability (DM3189 + Crizotinib; first compound 0.253 µM) | relative viability (DM3189 + Crizotinib; first compound 0.8 µM) | relative viability (DM3189 + Crizotinib; first compound 2.53 µM) | relative viability (DM3189 + Foretinib; first compound 0.08 µM) | relative viability (DM3189 + Foretinib; first compound 0.253 µM) | relative viability (DM3189 + Foretinib; first compound 0.8 µM) | relative viability (DM3189 + Foretinib; first compound 2.53 µM) | relative viability (DM3189 + Alpelisib; first compound 0.08 µM) | relative viability (DM3189 + Alpelisib; first compound 0.253 µM) | relative viability (DM3189 + Alpelisib; first compound 0.8 µM) | relative viability (DM3189 + Alpelisib; first compound 2.53 µM) | relative viability (DM3189 + OSI-027; first compound 0.08 µM) | relative viability (DM3189 + OSI-027; first compound 0.253 µM) | relative viability (DM3189 + OSI-027; first compound 0.8 µM) | relative viability (DM3189 + OSI-027; first compound 2.53 µM) |
| --- | --- | --- | --- | --- | --- | --- | --- | --- | --- | --- | --- | --- | --- | --- | --- | --- | --- | --- | --- | --- |
| NCI-H3122 | 0.405 | 0.334 | 0.355 | 0.333 | 0.237 | 0.204 | 0.261 | 0.259 | 0.98 | 0.909 | 0.735 | 0.805 | 0.656 | 0.74 | 0.701 | 0.739 | 1.16 | 0.916 | 0.909 | 1.04 |
| PC-3 [JPC-3] | 0.475 | 0.467 | 0.471 | 0.467 | 1.05 | 1.04 | 1.04 | 1.12 | 1.09 | 1.1 | 0.993 | 1.08 | 1.08 | 1.08 | 1.02 | 1.23 | 0.887 | 0.422 | 0.79 | 0.587 |
| PC-14 | 0.817 | 0.527 | 0.435 | 0.487 | 0.807 | 0.914 | 0.791 | 0.862 | 1.02 | 0.985 | 0.876 | 1.07 | 0.983 | 0.996 | 0.768 | 1.1 | 1.05 | 0.837 | 0.76 | 0.946 |
| RERF-LC-KJ | 0.451 | 0.4 | 0.407 | 0.426 | 0.887 | 0.812 | 0.863 | 0.885 | 1.03 | 0.904 | 0.927 | 0.97 | 0.932 | 0.829 | 0.895 | 0.937 | 0.666 | 0.59 | 0.586 | 0.601 |
| SK-LU-1 | 0.479 | 0.383 | 0.33 | 0.314 | 0.714 | 0.868 | 0.676 | 0.522 | 0.77 | 0.66 | 0.492 | 0.479 | 0.932 | 0.677 | 0.638 | 0.377 | 0.373 | 0.283 | 0.299 | 0.284 |
| SK-MES-1 | 0.679 | 0.62 | 0.587 | 0.662 | 1.05 | 0.885 | 0.69 | 0.918 | 0.849 | 0.701 | 0.698 | 0.76 | 0.937 | 0.873 | 0.738 | 0.782 | 0.602 | 0.53 | 0.523 | 0.481 |
| SW 1573 | 0.318 | 0.349 | 0.296 | 0.285 | 0.87 | 0.801 | 0.717 | 0.767 | 1 | 0.737 | 1.05 | 0.99 | 0.869 | 0.59 | 0.711 | 0.774 | 0.569 | 0.618 | 0.488 | 0.523 |
| UMC-11 | 0.348 | 0.321 | 0.349 | 0.356 | 0.499 | 0.477 | 0.538 | 0.414 | 1.01 | 0.975 | 0.988 | 1.02 | 0.994 | 0.998 | 0.794 | 0.749 | 0.531 | 0.461 | 0.395 | 0.51 |
